Test results as given in ChEMBL document CHEMBL5500324, “The potential of marine-derived piperazine alkaloids: Sources, structures and bioactivities” (Eur J Med Chem, 2024).
Converted amounts (≈) assume the structure as drawn.

Legend:
[1] = Cytotoxicity against mouse FM3A tsFT210 cells assessed as inhibition of cell growth; type: functional, cell-based
U-937 [2] = test: Cytotoxicity against human U-937 cells assessed as reduction in cell viability incubated for 72 hrs by MTT assay; type: functional, cell-based; conditions: U-937, 72 h
PC-3 [3] = test: Cytotoxicity against human PC-3 cells assessed as reduction in cell viability measured after 72 hrs by MTT assay; type: functional, cell-based; conditions: PC-3, 72 h
HEK293 = test: Cytotoxicity against HEK293 cells assessed as cell growth inhibition; type: functional, cell-based; conditions: Homo sapiens
HCT-116 [4] = test: Cytotoxicity against human HCT-116 cells assessed as reduction in cell viability incubated for 24 hrs by MTT assay; type: functional, cell-based; conditions: HCT-116, 24 h
RKO = test: Cytotoxicity against human RKO cells assessed as inhibition of cell growth measured after 48 hrs by MTT assay; type: functional, cell-based
HCT-116 [5] = test: Cytotoxicity against human HCT-116 cells assessed as reduction in cell viability incubated for 72 hrs by MTT assay; type: functional, cell-based; conditions: HCT-116, 72 h
SF-268 [6] = test: Cytotoxicity against human SF-268 cells assessed as reduction in cell growth incubated for 48 hrs by SRB assay; type: functional, cell-based; conditions: SF-268, 48 h
MCF7 [7] = test: Cytotoxicity against human MCF7 cells assessed as reduction in cell growth incubated for 48 hrs by SRB assay; type: functional, cell-based; conditions: MCF7, 48 h
NCI-H460 [8] = test: Cytotoxicity against human NCI-H460 cells assessed as reduction in cell growth incubated for 48 hrs by SRB assay; type: functional, cell-based; conditions: NCI-H460, 48 h
HepG2 [9] = test: Cytotoxicity against human HepG2 cells assessed as reduction in cell growth incubated for 48 hrs by SRB assay; type: functional, cell-based; conditions: HepG2, 48 h
SF-268 [10] = test: Cytotoxicity against human SF-268 cells assessed as reduction in cell growth incubated for 72 hrs by SRB assay; type: functional, cell-based; conditions: SF-268, 72 h
MCF7 [11] = test: Cytotoxicity against human MCF7 cells assessed as reduction in cell growth incubated for 72 hrs by SRB assay; type: functional, cell-based; conditions: MCF7, 72 h
HepG2 [12] = test: Cytotoxicity against human HepG2 cells assessed as reduction in cell growth incubated for 72 hrs by SRB assay; type: functional, cell-based; conditions: HepG2, 72 h
NCI-H460 [13] = test: Cytotoxicity against human NCI-H460 cells assessed as reduction in cell growth incubated for 72 hrs by SRB assay; type: functional, cell-based; conditions: NCI-H460, 72 h
U-937 [14] = test: Cytotoxicity against human U-937 cells assessed as reduction in cell viability; type: functional, cell-based
PC-3 [15] = test: Cytotoxicity against human PC-3 cells assessed as reduction in cell viability; type: functional, cell-based
SF-268 [16] = test: Cytotoxicity against human SF-268 cells assessed as reduction in cell viability incubated for 72 hrs by SRB assay; type: functional, cell-based; conditions: SF-268, 72 h
HepG2 [17] = test: Cytotoxicity against human HepG2 cells assessed as reduction in cell viability incubated for 72 hrs by SRB assay; type: functional, cell-based; conditions: HepG2, 72 h
SK-MEL-28 = test: Cytotoxicity against human SK-MEL-28 assessed as inhibition of cell growth incubated for 48 hrs; type: functional, cell-based; conditions: SK-MEL-28, 48 h
P388 [18] = test: Cytotoxicity against mouse P388 cells assessed as inhibition of cell growth incubated for 48 hrs; type: functional, cell-based; conditions: P388, 48 h
A549 [19] = test: Cytotoxicity against human A549 assessed as inhibition of cell growth incubated for 48 hrs; type: functional, cell-based; conditions: A549, 48 h
HT-29 = test: Cytotoxicity against human HT-29 assessed as inhibition of cell growth incubated for 48 hrs; type: functional, cell-based; conditions: HT-29, 48 h
BC = test: Cytotoxicity against human BC cells assessed as inhibition of cell growth; type: functional, cell-based
HCT-116 [20] = test: Antiproliferative activity against human HCT-116 cells assessed as reduction in cell viability incubated for 24 hrs by MTT assay; type: functional, cell-based; conditions: HCT-116, 24 h
QG-56 = test: Cytotoxicity against human QG-56 cells assessed as reduction in cell growth incubated for 24 hrs by MTT assay; type: functional, cell-based; conditions: QG-56, 24 h
DU-145 = test: Cytotoxicity against human DU-145 cells assessed as cell growth inhibition measured after 48 hrs by MTT assay; type: functional, cell-based; conditions: DU-145, 48 h
PANC-1 = test: Cytotoxicity against human PANC-1 cells assessed as reduction in cell viability; type: functional, cell-based
MCF7 [21] = test: Cytotoxicity against human MCF7 cells assessed as reduction in cell viability; type: functional, cell-based
L5178Y = test: Cytotoxicity against mouse L5178Y cells assessed as reduction in cell growth by MTT assay; type: functional, cell-based
K562 [22] = test: Cytotoxicity against human K562 cells assessed as reduction in cell growth by MTT assay; type: functional, cell-based
[23] = Cytotoxicity against human A2780cis cells assessed as cell growth inhibition by SRB assay; type: functional, cell-based
[24] = Antitumor activity against human A375.S2 cells assessed as cell growth inhibition; type: functional, cell-based
HeLa [25] = test: Antitumor activity against human HeLa cells assessed as inhibition of cell growth by MTT assay; type: functional, cell-based
P388 [26] = test: Antitumor activity against mouse P388 cells assessed as cell growth inhibition; type: functional, cell-based
A549 [27] = test: Anticancer activity against human A549 cells assessed as reduction in cell growth; type: functional, cell-based
HL-60 [28] = test: Anticancer activity against human HL-60 cells assessed as inhibition of cell growth measured after 24 hrs by CCK-8 assay; type: functional, cell-based; conditions: HL-60, 24 h
Bel-7402 = test: Anticancer activity against human Bel-7402 cells assessed as reduction in cell growth measured for 24 hrs by MTT assay; type: functional, cell-based; conditions: Bel-7402, 24 h
HepG2 [29] = test: Cytotoxicity against human HepG2 cells assessed as reduction in cell growth; type: functional, cell-based
[30] = Cytotoxicity against human Huh-7 cells assessed as reduction in cell growth; type: toxicity, cell-based
HeLa [31] = test: Cytotoxicity against human HeLa cells assessed as reduction in cell viability measured for 24 hrs by MTT assay; type: functional, cell-based
K562 [32] = test: Antiproliferative activity against human K562 cells assessed as reduction in cell growth incubated for 72 hrs by MTT assay; type: functional, cell-based; conditions: K562, 72 h
HL-60 [33] = test: Antiproliferative activity against human HL-60 cells assessed as reduction in cell growth incubated for 72 hrs by MTT assay; type: functional, cell-based; conditions: HL-60, 72 h
BGC-823 = test: Cytotoxicity against human BGC-823 cells assessed as reduction in cell growth measured after 72 hrs by MTT assay; type: functional, cell-based; conditions: BGC-823, 72 h
MCF7 [34] = test: Cytotoxicity against human MCF7 cells assessed as reduction in cell growth measured after 72 hrs by MTT assay; type: functional, cell-based; conditions: MCF7, 72 h
HepG2 [35] = test: Cytotoxicity against human HepG2 cells; type: functional, cell-based
MCF7 [36] = test: Cytotoxicity against human MCF7 cells; type: functional, cell-based
HCT-116 [37] = test: Cytotoxicity against human HCT-116 cells; type: functional, cell-based
HEp-2 = test: Cytotoxicity against human HEp-2 cells assessed as reduction in cell growth; type: functional, cell-based
HeLa [38] = test: Cytotoxicity against human HeLa cells; type: functional, cell-based

## CN1C(=O)[C@]23CC4=CC=C[C@H](O)[C@H]4N2C(=O)[C@@]1(CO)SS3 [GLIOTOXIN]
[1]
  IC50: 0.15 mg/L (≈ 0.46 µM)
U-937 [2]
  IC50: 0.52 µM
PC-3 [3]
  IC50: 15.9 µM
HEK293
  IC50: 1.58 µM
HCT-116 [4]
  IC50: 1.24 µM
RKO
  IC50: 0.8 µM
HCT-116 [5]
  IC50: 0.41 µM
SF-268 [6]
  IC50: 0.24 µM
MCF7 [7]
  IC50: 0.08 µM
NCI-H460 [8]
  IC50: 0.24 µM
HepG2 [9]
  IC50: 0.21 µM
SF-268 [10]
  IC50: 0.24 µM
MCF7 [11]
  IC50: 0.08 µM
HepG2 [12]
  IC50: 0.24 µM
NCI-H460 [13]
  IC50: 0.21 µM
U-937 [14]
  IC50: 0.2 µM
PC-3 [15]
  IC50: 0.39 µM

## C=CC(C)(C)c1[nH]c2ccccc2c1/C=C1\NC(=O)[C@@]2(CC[C@]3(O)c4cc(C)cc(O)c4C(=O)c4c(O)cc(OC)c2c43)NC1=O
SF-268 [16]
  IC50: 30.1 µM
HepG2 [17]
  IC50: 37.3 µM

## CS[C@]1(CO)C(=O)N2C3C(=CC=CC3O)C[C@@]2(SC)C(=O)N1C (stereo partly drawn)
[1]
  IC50: 89.8 mg/L (≈ 252 µM)
U-937 [14]
  IC50: 0.52 µM
PC-3 [15]
  IC50: 15.9 µM

## COC1=C(C)C(=O)C2=C(C1=O)[C@H]1[C@@H]3CC4=C(C(=O)C(OC)=C(C)C4=O)[C@H](COC(C)=O)N3[C@@H](O)[C@@H](C2)N1C
SK-MEL-28
  IC50: 0.0125 mg/L (≈ 0.0237 µM)
P388 [18]
  IC50: 0.0125 mg/L (≈ 0.0237 µM)
A549 [19]
  IC50: 0.0125 mg/L (≈ 0.0237 µM)
HT-29
  IC50: 0.0125 mg/L (≈ 0.0237 µM)
BC
  IC50: 0.0025 µM
HCT-116 [20]
  IC50: 0.00057 µM
QG-56
  IC50: 0.00076 µM
DU-145
  IC50: 0.00049 µM

## COc1ccc([C@H]2SS[C@@]34C[C@]5(O)[C@H](Cl)C=C[C@@H](O)[C@@H]5ON3C(=O)[C@@H]2NC4=O)c(O)c1OC
PANC-1
  IC50: 0.02 µM

## COc1ccc2c3c([nH]c2c1)[C@H](C=C(C)C)N1C(=O)[C@]2(O)CCCN2C(=O)[C@@]1(O)[C@H]3OC
MCF7 [21]
  IC50: 7.6 µM

## C[C@]12NC(=O)[C@@H](Cc3c1[nH]c1ccccc31)n1c2nc2ccccc2c1=O
L5178Y
  IC50: 3.6 µM
K562 [22]
  IC50: 15 µM
[23]
  IC50: 38.8 µM

## CC(C)=CCC/C(C)=C/COc1ccc(C[C@@H]2NC(=O)[C@H](C)NC2=O)cc1
[24]
  IC50: 4.6 µM
HeLa [25]
  IC50: 3.4 µM
P388 [26]
  IC50: 2.86 µM
A549 [27]
  IC50: 1.37 µM
HL-60 [28]
  IC50: 1.73 µM
Bel-7402
  IC50: 3.2 µM

## C[C@H]1CN2CC[C@]34C[C@@]5(C(=O)Nc6c5ccc5c6C(=O)CC(C)(C)O5)C(C)(C)[C@@H]3[C@@]2(C1)C(=O)N4C
HepG2 [29]
  IC50: 3.7 µM
[30]
  IC50: 2.8 µM

## C=CC(C)(C)[C@@]12C[C@H]3C(=O)N[C@@H](Cc4ccc(O)cc4)C(=O)N3[C@@H]1N([C@H]1O[C@]3(C[C@@H]1NC(=O)/C=C/C(C)CC(C)CCCCCC)[C@@H]1O[C@@H]1[C@](O)(CC(C)=O)[C@@H]1O[C@@H]13)c1ccccc12 (stereo partly drawn)
HeLa [31]
  IC50: 17.7 µM
K562 [32]
  IC50: 19.9 µM
HL-60 [33]
  IC50: 12.1 µM
BGC-823
  IC50: 16.6 µM
MCF7 [34]
  IC50: 8 µM

## CC(C)/C=C1\NC(=O)[C@H](CCC(N)=O)n2c1nc1ccccc1c2=O [AURANTIOMIDE C]
HepG2 [35]
  IC50: 23.9 mg/L (≈ 70.3 µM)
MCF7 [36]
  IC50: 20.5 mg/L (≈ 60.2 µM)
HCT-116 [37]
  IC50: 9.51 mg/L (≈ 27.9 µM)
HEp-2
  IC50: 37.6 mg/L (≈ 111 µM)
HeLa [38]
  IC50: 18.5 mg/L (≈ 54.3 µM)
